Results as given in paper PMC12406253, “Exploration of the Neuromodulatory Properties of Fyn and GSK-3β Kinases Exploiting 7‑Azaindole-Based Inhibitors” (Journal of Medicinal Chemistry, 2025).

How the values were obtained:
[1] = test system: immortalized human brain endothelial cell line (hCMEC/D3); test: BBB permeability in hCMEC/D3 transwell model; settings: 100 μM apical; ± SE
Description: (§1) To this aim, the immortalized human brain endothelial cell line (hCMEC/D3) was used since it mimics the brain endothelium-restricted permeability and expresses most of the transporters and receptors present in vivo, constituting a valuable in vitro model of the human BBB crossing system.
(§2) BBB permeability assay was conducted as described in Albertini et al. The brain microvascular endothelial cells (hCMEC/D3) were seeded at the density of 5 × 10^4 cells per cm^2 in the upper compartment of Transwell filters (polyester, pore size 0.4 μm, 12-well tissue culture transwell; Corning), precoated with rat tail collagen type I (0.1 mg/mL; Roche). They were grown for 7 days up to confluence in Endothelial Cell Growth Medium 2 (Promocell), supplemented with penicillin/streptomycin 100 U/mL, in a humidified, 5% CO2 incubator at 37 °C. Confluent monolayers were washed in prewarmed HBSS buffer, and the selected compounds were added to the apical (AP) side at a concentration of 100 μM. […] Samples (100 μL) were collected from the BL side at different time points (15, 30, 60, and 90 min) and then replaced with the corresponding volume of HBSS buffer. […] The concentration of compounds was determined using a Ultimate 3000 HPLC system (ThermoFisher) with UV–vis detection at the maximum absorption wavelength of each compound except for inulin as determined by a spectrophotometric method using a Tecan Sunrise absorbance microplate reader. […] The permeability coefficient (Papp) was calculated as follows: Papp = (ΔQ/Δt)/(C [donor] × A), where ΔQ/Δt represents the permeation rate (mol/s), C [donor] is the initial compound concentration in the donor compartment at time 0 (mol/cm^3), and A represents the surface area of the filter (1.12 cm^2).

[2] = test system: neurospheres (NPCs from the subventricular zone); test: Neurosphere differentiation, immunofluorescence of DCX, GFAP, OLIG2; assay type: cell-based, mice; settings: 1 μM; 7 days
From the text: Lastly, we move forward to evaluate the neuromodulatory profile of selected compounds that involves the capability to polarize the spontaneous differentiation of neurospheres, which potentially can maturate in neurons or macroglia, such as astrocytes and oligodendrocytes. Modulating NPC differentiation is especially relevant under neurodegenerative conditions as it could offer an intriguing opportunity to achieve polyhedric therapeutic effects. Importantly, neuronal differentiation may help to counteract the progressive neuronal loss, while promoting oligodendrocyte phenotype could support remyelination and neuronal function and the astrocytic polarization may aid to foster a neuroprotective profile. Particularly, after 7 days of treatment at 1 μM, in the same experimental conditions previously reported, cells were fixed and stained with different antibody markers such as doublecortin (DCX) for the immature neurons, glial fibrillary acidic protein (GFAP) for astrocytes, and oligodendrocyte transcription factor 2 (OLIG2) for oligodendrocyte precursors for immunofluorescence analysis (Figure a). […] By driving the maturation of astrocytes, compounds 41 and 43 could exert neuroprotection through multiple mechanisms, including the secretion of neurotrophic factors, enhancement of antioxidant defenses, regulation of water balance, ion homeostasis, and glutamate buffering and recycling. Furthermore, astrocytes support the integrity of the blood–brain barrier (BBB) and aid in the refinement of neural networks via synaptic pruning, further reinforcing their role in preserving brain function and structure.
NSCs were initially obtained by SVZ microdissection of 6 months-old C57BL/6N wild-type male mice (Mus musculus) and routinely cultured in suspension in DMEM-F12 (Gibco; ThermoFisher Scientific, Waltham, MA, USA) supplemented with 2 mM glutamine, 10 μg/mL insulin from bovine pancreas (Sigma-Aldrich; St Louis, MO, USA), 20 ng/mL epidermal growth factor (EGF; PeproTech EC, London, UK), 20 ng/mL fibroblast growth factor-2 (FGF2; PeproTech), 1% N2 (ThermoFisher Scientific), 1% B27 (ThermoFisher Scientific), 10 units/mL penicillin, and 10 μg streptomycin.
To assess the effect of compounds of interest in NSCs differentiation, 30 spheres were plated on 13 mm glass coverslips, previously coated with Matrigel matrix (Corning; New York, USA), in complete DMEM F-12 medium, and treated with 1 μM of compounds of interest. After 7DIV, neurospheres were fixed for 20 min with 4% PFA in PBS 0.1% pH 7.4. Fixed neurospheres were permeabilized in 0.1% Triton/PBS and nonspecific sites were blocked for 1 h with 0.1% Triton/PBS and 5% normal goat serum (Sigma-Aldrich; St Louis, MO, USA). Cells were then incubated overnight at 4 °C with the following primary antibodies: Anti-Doublecortin DCX (Abcam, Cambridge, UK), GFAP (Dakopatts), OLIG2 (Santa Cruz Biotechnology), 1:500 dilution in 0.1% Triton/PBS with 2% normal goat serum. After 3 washes in 0.1% Triton/PBS, specific secondary antibodies were added for 2 h at RT in the dark: Donkey anti-Mouse IgG Alexafluor 555 (Abcam, Cambridge, UK), Goat anti-Rabbit IgG Alexafluor 555 (Abcam, Cambridge, UK), 1:1000 dilution in 0.1% Triton/PBS with 2% normal goat serum. Following 3 washes in 0.1% Triton/PBS, nuclei were stained with DAPI (2 μg/mL, Sigma-Aldrich) for 5 min. Glass coverslips were mounted by using Ultracruz Aqueous Mounting Medium with DAPI (Santa Cruz Biotechnology). Neurospheres confocal images were obtained with a Nikon EZ-C1 microscope (60× objective) and the z-stack function (1024 steps and 1 μm thickness layers; 40 total stacks). 3D image reconstruction was performed by using Fiji ImageJ2 software, z-project plugin, and selecting the sum stacks’ function. Fluorescence intensity index was estimated as the ratio of markers’ positive cells intensity/total cells fluorescence intensity stained with DAPI per ROI.

[3] = BBB permeability in hCMEC/D3 transwell model; settings: human
Description: as §1, §2

[4] = test system: primary rat cerebellar granule neurons (CGNs); test: Neuroprotection in CGNs, serum/potassium deprivation (MTT); assay type: cell-based; settings: 5, 10, and 25 μM, 48 h
From the text: First, we evaluated the neuroprotective properties of the selected compounds in the same cell line, once the expression of Fyn and GSK-3β in this cellular model was verified (Figure S2), after a serum/potassium deprivation experiment, which simulates physiological aging (and mortality), triggering around 20% of cell death. In particular, 7 days differentiated CGNs were exposed to serum-free BME medium with low extracellular concentration of K^+ ions and treated at selected doses (i.e., 5, 10, and 25 μM) of compounds for 48 h. Neuronal viability was then determined with an MTT assay.
To evaluate the neuroprotective effect of our compounds, we tested increasing concentrations (5 μM, 10 μM, 25 μM) of compounds of interest in differentiated CGNs switched to serum-free BME medium with 5 mM KCl (serum-potassium deprivation) for 48 h to mimic in vitro the naturally occurring death of granule cells. Neuroprotection was evaluated through MTT assay.
For MTT assay, thiazolyl blue was added to the culture medium at a final concentration of 0.1 mg/mL. Following a 20 min incubation at 37 °C in the dark, the MTT precipitate was dissolved in 0.1 M Tris–HCl pH 7.5 buffer containing 5% Triton X-100 (all from Sigma-Aldrich) and absorbance was read at 570 nm in a microplate spectrophotometric reader (Bio-Rad).

[5] = test system: primary rat cerebellar granule neurons (CGNs); test: Neurotoxicity, cell viability in CGNs (MTT); assay type: cell-based; settings: 5, 10, and 25 μM, 24 h
Description: A preliminary cell viability assessment was conducted in primary rat cerebellar granule neurons (CGNs), which are considered a reliable model for studying cellular and molecular mechanisms of survival/apoptosis and neurodegeneration/neuroprotection.
Primary cerebellar granule cells were dissociated from cerebella and plated on 96-well plates, previously coated with 10 μg/mL poly-L-lysine, at a density of 1.2 × 10^5 cells/0.2 mL medium/well in BME supplemented with 10% heat-inactivated FBS (Life Technologies), 2 mmol/L glutamine, 100 μmol/L gentamicin sulfate, and 25 mM KCl (all from Sigma-Aldrich). Sixteen hours later, 10 μM cytosine arabinofuranoside (Sigma-Aldrich) was added to avoid glial proliferation. After 7 days in vitro, differentiated neurons were shifted to serum-free BME medium and exposed to increasing concentrations (5 μM, 10 μM, 25 μM) of compounds of interest for 24 h. Then, cell viability was evaluated through the MTT assay.

[6] = test system: neurospheres (NPCs from the subventricular zone); test: Neurosphere growth analysis (NPC proliferation); assay type: cell-based, mice; settings: 0.1, 1, and 5 μM; 7 days
Description: Based on that, we further investigated the neurogenic and differentiation potential of our kinase inhibitors in cell culture of neurospheres, which are floating pools of NPCs coming from the subventricular zone (SVZ) of six-month-old mice. Particularly, we first analyzed the variation, during 7 days, in number and size of neurosphere population with and without treatment.
To investigate the effect of compounds of interest in neurospheres’ growth rate, single spheres were plated in suspension in 96-well plates (5 × 10^3 cells/well) in the presence of compounds (0.1 μM, 1 μM, and 5 μM) in complete DMEM F-12 culture medium. One image/well was acquired every day by using the Sartorius Incucyte Live-Cell Analysis System and evaluated through the Brightfield Spheroid Analysis Software Module. Only aggregates with areas larger than 400 μm^2 were considered for statistical analysis.

FYNα = FYNα (Homo sapiens, UniProt P06241); test: FYNα kinase assay, LANCE Ultra TR-FRET; assay type: biochemical; settings: mean ± SD of at least three independent determinations; ATP near Km; read-out: Fyn IC50
Chain of FYNα (P06241 whole entry): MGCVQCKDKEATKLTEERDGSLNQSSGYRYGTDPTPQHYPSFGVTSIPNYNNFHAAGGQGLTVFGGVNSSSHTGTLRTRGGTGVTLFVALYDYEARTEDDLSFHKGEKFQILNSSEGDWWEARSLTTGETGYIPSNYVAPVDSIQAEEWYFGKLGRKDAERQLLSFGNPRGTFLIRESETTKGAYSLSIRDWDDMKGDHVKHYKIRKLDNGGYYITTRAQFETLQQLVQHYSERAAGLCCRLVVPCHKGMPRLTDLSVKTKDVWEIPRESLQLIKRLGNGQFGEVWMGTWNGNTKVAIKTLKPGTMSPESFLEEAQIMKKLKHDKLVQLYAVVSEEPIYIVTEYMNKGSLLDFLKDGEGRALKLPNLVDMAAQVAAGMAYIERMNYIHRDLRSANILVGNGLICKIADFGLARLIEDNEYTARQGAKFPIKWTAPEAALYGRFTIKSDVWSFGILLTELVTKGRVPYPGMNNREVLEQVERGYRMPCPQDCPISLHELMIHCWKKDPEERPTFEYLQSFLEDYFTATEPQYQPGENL
Description: GSK-3β and FYNα kinase assays were run in 384-well microplates (OptiPlate-384, White, PerkinElmer) in a total reaction volume of 20 μL. The inhibitory potency against human recombinant GSK-3β and FYNα (Carna Biosciences) was evaluated using the LANCE Ultra (PerkinElmer) time-resolved fluorescence resonance energy transfer (TR-FRET) by measuring the phosphorylation of the ULight-labeled substrate, according to the manufacturer’s instructions. The synthetic peptide surrounding Ser641 of human muscle glycogen synthase (ULight-GS (Ser641/pSer657)) and the synthetic 28-amino acid peptide containing eight Tyr residues placed in different amino acid contexts (ULightTM-TK (PT66)) were selected as specific substrates for GSK-3β and FYNα, respectively. Briefly, test compounds and staurosporine (reference compound) or DMSO (control) are mixed with the enzyme (GSK-3β: 2 nM and FYNα: 1 nM) in a buffer containing 50 mM HEPES (pH 7.5), 1 mM EGTA, 10 mM MgCl2, 2 mM DTT, and 0.01% Tween-20. […] Following incubation, the reaction is stopped by adding 6 mM EDTA. After 5 min, the antiphospho antibody labeled with europium chelate is added. After 1 more hour, the kinase reaction is monitored by irradiation at 320 nm and the fluorescence measured at 615 and 665 nm, using EnVision 2014 Multilabel Reader (PerkinElmer). The calculated signal ratio at 665/615 nm is proportional to the extent of ULight-substrate phosphorylation. The compounds were tested at 11 different concentrations ranging from 3 nM up to 100 μM in triplicate. […] The results were expressed as a percent inhibition of the control enzyme activity.
Dose–response curves were run in at least three independent experiments, performed in three technical replicates. IC50 values (concentrations causing half-maximal enzyme inhibition) were determined by nonlinear regression analysis of the Log[concentration]/response curves generated with mean replicate values using a four parameter Hill equation curve fitting with GraphPad Prism 8 (GraphPad Software Inc., CA-USA).

[7] = test system: immortalized murine microglia N9; test: Immunomodulation in LPS-treated N9 microglia, Western blot of iNOS and TREM2; settings: 2.5 and 5 μM; 100 ng/mL LPS, 24 h
Description: To gain a conclusive answer on the potential role of these kinase inhibitors in counteracting neuroinflammatory processes, after the verified induced astrocytic polarization, the ability of selected compounds to modulate inflammatory response was analyzed by favoring the immunomodulatory switch from neurotoxic M1 phenotype of microglia to phagocytic and neuroprotective M2 phenotype, evaluating inducible nitric oxide synthase (iNOS) and TREM2 as M1 and M2 markers (Figure ).
The microglial phenotype was evaluated through Western blot analysis of the pro-inflammatory iNOS and anti-inflammatory-TREM2 markers.

| Molecule | Permeability coefficient Papp [1] | Differentiation toward oligodendrocytes (OLIG2) [2] | Papp A→B at 90 min, 100 μM [3] [×10⁻⁶ cm/s] | Neuroprotection on CGNs (cell viability after serum/potassium deprivation) [4] | Increase in registered cell viability in comparison to control [5] | Neurotoxicity on CGNs (cell viability compared to control) [5] | Neurosphere dimension (brightfield object total area), maturation [6] | Neurosphere number (object count per image), neurogenesis [6] | IC50 (FYNα) [nM] | TREM2 expression (M2 marker) vs LPS [7] | iNOS expression (M1 marker) vs LPS [7] |
| --- | --- | --- | --- | --- | --- | --- | --- | --- | --- | --- | --- |
| inulin [reference compound] | 6.74± 1.7 10-6 cm/s |  |  |  |  |  |  |  |  |  |  |
| Br.Clc1cc(CNc2nc(-c3c[nH]c4ncccc34)cs2)ccn1 [Compound 28, N-((2-Chloropyridin-4-yl)methyl)-4-(1H-pyrrolo[2,3-b]pyridin-3-yl)thiazol-2-amine Hydrobromide] |  | this effect was mitigated | 12.4 ± 1.13 | mitigate the physiological senescence and mortality rate | amplified | not neurotoxic | noticeable maturation at days 6 and 7 | pronounced neurogenesis | 710 ± 90 | no significant variations | notably decreased the M1 marker at both tested concentrations |
